Data published in patent US9365608B2, “Method for treating diabetes” (Ohr Pharmaceutical, Inc., priority 2007, dated 2016).
“Also recorded” adds a separate entry of the source.

Assays:
[1] = tested on: Db/db (Lepr^db) mouse; test: Body weight change in the diabetic Db/db mouse; assay type: in vivo; details: Db/db mice, 5 or 10 mg/kg ip every 3 days x4; for % Change in Body Weight: vs body weight on study day 0
Method: (§1) To determine in vivo efficacy of the steroid analogues a Db/db (Lepr^db) in mouse model was used. Db/db mice are extensively used for screening of antidiabetic agents. Db/db mice were treated with either saline or 5 or 10 mg/kg steroid analogue every 3 days for a total of 4 doses via ip injection. Body weight, glucose tolerance and fasting blood glucose levels were measured for each group during the study. Each group had at least an N of 4 animals. All reagents and lab animals are commercially available.
Starting at study day 0, body weight measurements were taken every day for each group for up to 30 days. Percent change in body weight was calculated as the fractional response of body weight on study day X over the original body weight on study day 0.

[2] = tested on: Db/db (Lepr^db) mouse; test: Fasting blood glucose in the diabetic Db/db mouse; assay type: in vivo; details: Db/db mice; for % Reduction in FBG: 5 or 10 mg/kg ip every 3 days x4 doses, study day 14 after overnight fast, vs saline; for Reduction of FBG levels compared to saline control (in words): study day 14
Method: as §1
On study day 13, all animal groups were fasted overnight. On study day 14, 25 μL of whole blood was collected and analyzed for the glucose level (mg/dL) using a glucose analyzer.

[3] = tested on: Db/db (Lepr^db) mouse; test: Oral glucose tolerance test (OGTT) in the diabetic Db/db mouse; assay type: in vivo; details: for % Reduction in OGTT Above Baseline AUC / Reduction in ABAUC compared to saline control (in words): Db/db mice; for % Reduction in OGTT Above Baseline AUC: 5 or 10 mg/kg ip every 3 days x4, day 14, oral glucose 1.5 g/kg, 0-120 min, vs saline; for Reduction in ABAUC compared to saline control (in words): OGTT study day 14, p<0.05; for Response in glucose tolerance test vs saline treated controls (FIG. 3 legend): legend says ob/ob mice
Method: as §1
Also on study day 14, an OGTT was performed to assess glucose tolerance. At time 0, an oral glucose challenge (1.5 g/kg) was administered by oral gavage. At timepoints 0, 15, 30, 60, 90, 120 min post glucose load, 25 μl of whole blood was withdrawn from the tail vein of the animal and the glucose level was measured using a glucose analyzer. The glucose concentration vs time was plotted (FIG. 2). Above baseline area under the curve (ABAUC) of the glucose excursion time curve was determined using trapezoidal rule analyses.

[4] = target: T1, full length tyrosine phosphatase PTP1B (Homo sapiens, UniProt P18031); test: Inhibition of PTP1B by steroid analogues (pNPP hydrolysis, absorbance 405 nm); assay type: biochemical; details: read-out: PTP1B Inhibition (5 μM)
T1 construct: commercially available full length tyrosine phosphatase PTP1B; purchased
T1 sequence (P18031 1-435): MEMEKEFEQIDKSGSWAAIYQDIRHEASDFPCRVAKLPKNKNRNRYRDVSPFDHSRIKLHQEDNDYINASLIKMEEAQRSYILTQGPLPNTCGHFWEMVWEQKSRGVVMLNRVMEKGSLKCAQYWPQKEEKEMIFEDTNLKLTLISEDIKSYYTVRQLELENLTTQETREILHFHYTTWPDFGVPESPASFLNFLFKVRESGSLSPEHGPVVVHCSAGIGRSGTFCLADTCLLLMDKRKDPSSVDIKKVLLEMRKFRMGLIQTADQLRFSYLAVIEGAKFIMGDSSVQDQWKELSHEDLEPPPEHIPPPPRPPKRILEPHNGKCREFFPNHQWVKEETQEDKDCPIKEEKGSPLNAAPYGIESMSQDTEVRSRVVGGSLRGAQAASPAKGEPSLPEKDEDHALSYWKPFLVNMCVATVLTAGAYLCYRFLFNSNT
Method: The steroid analogues were tested for inhibition against the commercially available full length tyrosine phosphatase PTP1B. […] The assay uses para-nitro-phenyl phosphate (pNPP), a non-specific substrate to assess phosphatase activity. Phosphatase activity was based on the ability of PTP 1B to catalyze the hydrolysis of pNPP to p-nitrophenol (pNP).

[5] = target: T2, full length TCPTP (Homo sapiens, UniProt P17706); test: Inhibition of TCPTP by steroid analogues (pNPP hydrolysis); assay type: biochemical; details: 200 μM inhibitor; pNPP substrate
T2 construct: except full length TCPTP was used as the enzyme
T2 sequence (P17706 1-415): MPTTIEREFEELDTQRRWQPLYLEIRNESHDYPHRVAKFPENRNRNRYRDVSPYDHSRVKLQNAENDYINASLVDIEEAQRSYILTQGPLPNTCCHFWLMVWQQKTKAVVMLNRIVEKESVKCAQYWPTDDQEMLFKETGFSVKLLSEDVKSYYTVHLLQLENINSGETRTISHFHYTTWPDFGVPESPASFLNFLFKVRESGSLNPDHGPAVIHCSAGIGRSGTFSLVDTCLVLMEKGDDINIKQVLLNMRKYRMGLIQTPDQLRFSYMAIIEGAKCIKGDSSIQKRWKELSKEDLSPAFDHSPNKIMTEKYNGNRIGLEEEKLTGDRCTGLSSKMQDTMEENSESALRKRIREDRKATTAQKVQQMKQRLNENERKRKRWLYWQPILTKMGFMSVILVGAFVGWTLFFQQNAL
Method: The steroid analogues were tested for inhibition against the commercially available full length tyrosine phosphatase PTP1B. The ability of each analogue to inhibit the activity of PTP1B was measured in the presence of 10 μM of the steroid analogue. The assay uses para-nitro-phenyl phosphate (pNPP), a non-specific substrate to assess phosphatase activity. Phosphatase activity was based on the ability of PTP 1B to catalyze the hydrolysis of pNPP to p-nitrophenol (pNP).
The steroid analogues were also tested for their ability to inhibit the tyrosine phosphatase TCPTP as an indication of their potential toxicity by the inhibition of the immune response. The TCPTP inhibition assay was done in the same manner as the PTP1B assay except full length TCPTP was used as the enzyme and the inhibitor was at a concentration of 200 μM. The results of the TCPTP inhibition assays are shown in Table 1, column D and show three compounds that inhibit TCPTP less than 50% even at a 20 fold greater concentration.

[6] = tested on: Insulin Receptor β (IR-β) in the hypothalamus; test: Phosphorylation of IR-β in the rat hypothalamus (IP / anti-pTyr western blot); assay type: in vivo; details: male SD rats, 10 mg/kg i.p. Day 0; insulin 100 U/kg i.p. Day 1; 15 or 30 min post-dose; listed as MSI-1436, 10 mg/kg
Method: Male SD rats were divided into 8 groups with 4 rats per group. All rats were fed ad libitum normal rodent chow and regular tap water. On Day 0, rats were dosed via intraperitoneal (i.p.) injection with 10 mg/kg MSI-1436 or 0.9% saline. Rats were fasted overnight from Day 0 to Day 1. On Day 1, animals were dosed i.p. with 0.9% saline or 100 U/kg of insulin. At 15 or 30 minutes post-dose (Day 1), animals were sacrificed and the hypothalamuses were harvested, transferred to 1.5 mL eppendorf tubes, and frozen in liquid nitrogen. Samples were stored at −80° C. until further analysis. Hypothalamuses were pooled (3-4 per group) and homogenized in 2-mL Wheaton vials and Dounce homogenizers in 1 mL of tissue extraction reagent plus phosphatase and protease inhibitors. Lysates were centrifuged for 10 minutes at 4° C. (14,000 rpm) and the supernatants were transferred to new 1.5 mL eppendorf tubes. Lysates (500 μg) were immunoprecipitated for Insulin Receptor β overnight at 4° C. The samples were then bound to Protein A according to standard protocols for 4 hours at 4° C. […]
500 μg of total protein from each sample was loaded onto a 1.5 mm 4-12% Bis-Tris Novex gel and run at 175V for approximately 1 hr in 1×MOPS buffer. […] The ratio of the pTyr-IRβ band to the IRβ band was computed in Excel and the fold change in IR phosphorylation determined. […]

[7] = previously described in US patents; cited from earlier work

Compound	% Change in Body Weight [1]	% Reduction in FBG [2]	Reduction of FBG levels compared to saline control (in words) [2]	% Reduction in OGTT Above Baseline AUC [3]	Reduction in ABAUC compared to saline control (in words) [3]	inhibition at 200 µM [5]	further results
CC(C)[C@@H](CC[C@@H](C)[C@H]1CCC2C3C(CC[C@@]21C)[C@@]1(C)CC[C@H](NCCCNCCCCNCCCN)C[C@@H]1C[C@H]3O)OS(=O)(=O)O (stereo partly drawn) [Compound 1873]	4%	41%	significant reduction	47%	significant reduction	–	Weight loss (in words) [1]: do not produce weight loss; Response in glucose tolerance test vs saline treated controls (FIG. 3 legend) [3]: respond significantly faster
CNCCNC(C)[C@H]1CCC2C3CC=C4CC(O)CC[C@]4(C)C3CC[C@@]21C (stereo partly drawn) [Compound 2498]	–	–	–	–	–	–	inhibition at 5 µM [4]: 13%
C[C@H](CCS(=O)(=O)O)[C@H]1CCC2C3CC[C@H]4C[C@@H](NCCCNCCCCN)CC[C@]4(C)C3CC[C@@]21C (stereo partly drawn) [Compound 1370]	–	–	–	–	–	44%	–
CC(C)[C@@H](CC[C@@H](C)[C@H]1CCC2C3C(CC[C@@]21C)[C@@]1(C)CC[C@H](NCCCNCCCCNCCCN)C[C@H]1C[C@H]3O)OS(=O)(=O)O (stereo partly drawn) [Compound 1701]	3%	40%	significant reduction	49%	significant reduction	–	Weight loss (in words) [1]: do not produce weight loss; Response in glucose tolerance test vs saline treated controls (FIG. 3 legend) [3]: respond significantly faster
CC(C)[C@@H](CC[C@@H](C)[C@H]1CCC2C3C(CC[C@@]21C)[C@@]1(C)CCC(O)C[C@H]1C[C@H]3O)OS(=O)(=O)O (stereo partly drawn) [Compound 2459]	–	–	–	–	–	–	inhibition at 5 µM [4]: 17%
CC(C)CCC[C@@H](C)[C@H]1CCC2C3C(CC[C@@]21C)[C@@]1(C)CC[C@H](NCCCNCCCCN)C[C@@H]1C[C@H]3O (stereo partly drawn) [Compound 1371]	–	–	–	–	–	0%	–
COC(=O)CC[C@@H](C)[C@H]1CCC2C3C[C@@H](O)[C@H]4C[C@@H](NCCN)CC[C@]4(C)C3CC[C@@]21C (stereo partly drawn) [Compound 1431]	−7%	55%	significant reduction	47%	significant reduction	–	Weight loss (in words) [1]: weight loss similar to 1436
CC(C)[C@@H](CC[C@@H](C)C1CCC2C3C(CC[C@@]21C)[C@@]1(C)CCC(=O)C[C@H]1C[C@@H]3O)S(=O)(=O)O (stereo partly drawn) [Compound 2347]	–	–	–	–	–	–	inhibition at 5 µM [4]: 27%
COC(=O)CC[C@@H](C)[C@H]1CCC2C3C(CC[C@@]21C)[C@@]1(C)CC[C@H](NCCCNCCCCN)C[C@@H]1C[C@H]3O (stereo partly drawn) [Compound 1320]	–	–	–	–	–	0%	–
CC(C)[C@@H](CC[C@@H](C)[C@H]1CCC2C3C(CC[C@@]21C)[C@@]1(C)CC[C@H](NCCCNCCCCNCCCN)C[C@@H]1C[C@H]3O)OS(=O)(=O)O (stereo partly drawn) [Compound 1436]	−8%	64%	significant reduction	83%	significant reduction	0%	Amount of phospho-Tyrosine on insulin stimulated IR-β in the hypothalamus (fold change, pTyr-IRβ/IRβ) [6]: can increase the level; also recorded: nearly doubles; Weight gain and appetite in animal models [7]: inhibit weight gain and suppress appetite
CC(C)[C@H](OS(=O)(=O)O)[C@@H](C)[C@H]1CCC2C3C(CC[C@@]21C)[C@@]1(C)CC[C@H](NCCCNCCCCNCCCN)C[C@@H]1C[C@H]3O (stereo partly drawn) [Compound 1814]	–	46%	significant reduction	60%	significant reduction	–	–
CC(C)CCC[C@@H](C)[C@H]1CCC2C3CC[C@H]4C[C@@H](NCCCNCCCCNCCCN)CC[C@]4(C)C3CC[C@@]21C (stereo partly drawn) [Compound 1303]	–	–	–	–	–	83%	–
